The source of these data is ChEMBL document CHEMBL1201862, “PubChem BioAssay data set” (2004).

What all share (assay): NCI-60 cell line screen, 48 h
In test [1] the test system is NCI/ADR-RES.
The test system of test [2] is NCI-H23.
The subject of test [3] is LOX IMVI.
For test [4], the system named is OVCAR-8.
Test [5] concerns HT-29.
Test [6] concerns SK-MEL-2.
Test [7] deals with HOP-62.
Test [8] deals with CAKI-1.
Test [9] relates to CCRF-CEM.
Test [10] has as its system OVCAR-4.
Test [11] has as its system MDA-N.
For test [12], the system named is SF-268.
Test [13] relates to K562.
Test [14] has as its system RPMI-8226.
The test system of test [15] is HCT-116.
In test [16] the test system is OVCAR-3.
Test [17] relates to MOLT-4.
For test [18], the system named is SF-295.
Test [19] deals with ACHN.

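Test compounds were applied to cells in 96-well plates for 48 hours at 5 doses. The concentration for 50% growth inhibition is given as GI50.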 Activity calls are given as the source filed them. Rule as the data show it: active = GI50 up to about 1.1 µM and inactive = higher. A value given as a limit tells only on which side of the number the result lay.

As to `Clc1cccc(/C=c2\nc(-c3ccccc3)n3c2nc2ccccc23)c1`, the GI50 in [1] is > 100 µM (inactive); in test [2], 72.8 µM (inactive); in test [3] it was > 100 µM (inactive); in [4], > 100 µM (inactive); in test [5] it was > 100 µM (inactive); in [6], > 100 µM (inactive). Besides, the GI50 in test [7] is 71.3 µM (inactive); in test [8], > 100 µM (inactive); in [9], > 100 µM (inactive); in test [10] it was > 100 µM (inactive); in test [11] it was > 100 µM (inactive); in test [12], 40.8 µM (inactive). In addition, the GI50 in [13] was > 100 µM (inactive); in test [14], > 100 µM (inactive); in test [15] it was > 100 µM (inactive); in test [16], > 100 µM (inactive); in test [17], > 100 µM (inactive); in [18] it was 73.3 µM (inactive).

Consider `COc1cc(C2(C)SCCCS2)cc(OC)c1OC`, for which the GI50 in test [2], in test [3], in [4], in [19], in [5] and in test [6] was > 100 µM (inactive) each time. The GI50 in test [7], in test [8], in test [9], in test [10], in [12] and in test [13] was > 100 µM (inactive) each time. For the same compound, the GI50 in test [14], in [15], in test [16], in test [17] and in [18] was > 100 µM (inactive) in each case.

Regarding `Cc1ccc2[nH]c3c4c5ccccc5nc-4c[nH]c3c2c1`, the GI50 in test [2] is 10 µM (inactive); in [3] it was 17.2 µM (inactive); in [4], 18.6 µM (inactive); in test [19], 16.7 µM (inactive); in test [5], 11.6 µM (inactive); in [6] it was 18.9 µM (inactive). Moreover, the GI50 in test [7] was 10 µM (inactive); in [8] it was 15.8 µM (inactive); in test [9] it was 15.3 µM (inactive); in test [10], 22.1 µM (inactive); in test [12] it was 17 µM (inactive); in test [13], 12.6 µM (inactive). Moreover, the GI50 in test [14] was 18.1 µM (inactive); in test [15], 17.1 µM (inactive); in test [16], 10 µM (inactive); in test [17], 16.2 µM (inactive); in test [18], 17.2 µM (inactive).

Take `CCCOc1ccc(/C=C/c2cc(OC)c(OC)c(OC)c2)cc1`: the GI50 in test [2] was 0.23 µM (active); in [3], 0.445 µM (active); in test [4], 0.525 µM (active); in test [19], 0.697 µM (active); in test [5], 0.272 µM (active); in test [6], 0.822 µM (active). For the same compound, the GI50 in [7] was 0.265 µM (active); in test [8], 0.209 µM (active); in [9] it was 0.324 µM (active); in test [10] it was 0.971 µM (active); in test [12], 0.618 µM (active); in test [13], 0.0733 µM (active). Also, the GI50 in test [14] is 0.456 µM (active); in test [15], 0.552 µM (active); in test [16] it was 0.146 µM (active); in test [17], 0.443 µM (active); in test [18], 0.185 µM (active).

`CN(C)NC(=O)/C(=C/c1ccc(Cl)cc1)NC(=O)c1ccccc1`: the GI50 in [2] was > 100 µM (inactive); in [3], 48.3 µM (inactive); in test [4] it was > 100 µM (inactive); in test [19], > 100 µM (inactive); in [5] it was > 100 µM (inactive); in test [6], > 100 µM (inactive). For the same compound, the GI50 in test [7] was > 100 µM (inactive); in test [8] it was > 100 µM (inactive); in test [9], > 100 µM (inactive); in test [10] it was > 100 µM (inactive); in [12] it was > 100 µM (inactive); in test [13], 85.3 µM (inactive). In addition, the GI50 in test [14], in test [15], in [16], in test [17] and in test [18] was > 100 µM (inactive) in each case.

As to `O=C(c1ccco1)N(C(=S)N1CCN(c2ccccc2)CC1)c1ccccc1`, the GI50 in test [2], in test [3], in test [4], in test [19], in test [5] and in [6] was > 100 µM (inactive) throughout. In addition, the GI50 in [7], in test [8], in test [9], in [10], in test [12] and in test [13] was > 100 µM (inactive) throughout. In addition, the GI50 in test [14], in test [15], in [16], in test [17] and in test [18] was > 100 µM (inactive) in each case.

With `CCOC(=O)C(=O)Nc1ccc([N+](=O)[O-])cc1C#N`, the GI50 in [2], in test [3], in test [4], in [19], in test [5] and in [6] was > 100 µM (inactive) in each case. Further, the GI50 in test [7], in test [8], in test [9], in test [10], in test [12] and in test [13] was > 100 µM (inactive) each time. Further, the GI50 in [14], in test [15], in test [16], in [17] and in [18] was > 100 µM (inactive) in each case.

Take `N#Cc1c(-c2ccc(Cl)cc2)c(C#N)c(=O)n(NS(=O)(=O)c2ccccc2)c1O`: the GI50 in test [1] is 35.3 µM (inactive); in [3], 15.1 µM (inactive); in [4] it was 28.8 µM (inactive); in test [19] it was 25.9 µM (inactive); in test [5], 34.8 µM (inactive); in [6], 19.6 µM (inactive). Further, the GI50 in test [7] is 27 µM (inactive); in [8] it was 21 µM (inactive); in test [9] it was 25.2 µM (inactive); in test [10], 27.1 µM (inactive); in test [11], 19.8 µM (inactive); in test [12] it was 35.6 µM (inactive). Besides, the GI50 is 29.1 µM (inactive) in [13]; 6.44 µM (inactive) in test [14]; 16.2 µM (inactive) in test [15]; 22.5 µM (inactive) in test [17]; 30.1 µM (inactive) in [18].

Take `COC(=O)c1cc2c3c(ccc2[nH]1)N(C(=O)c1cc2c4c(ccc2[nH]1)N(C(=O)c1cc2c5c(ccc2[nH]1)N(C(N)=O)CC5)CC4)CC3`: the GI50 in test [2] is 2.94 µM (inactive); in test [3] it was 1.88 µM (inactive); in [19] it was 3.13 µM (inactive); in test [5], 6.58 µM (inactive); in test [6] it was 3.18 µM (inactive); in test [7], 2.29 µM (inactive). Also, the GI50 in test [8] is 2 µM (inactive); in [9], 4.58 µM (inactive); in test [10] it was 3.55 µM (inactive); in [12], 2.17 µM (inactive); in test [13] it was 2.44 µM (inactive); in [14], 7.89 µM (inactive). Besides, the GI50 is 2.24 µM (inactive) in test [15], 3.9 µM (inactive) in test [16], > 23 µM (inactive) in test [17] and 3.12 µM (inactive) in [18].

`O=C1Nc2c(Cl)cc(Cl)cc2/C1=N/NC(=O)c1ccccc1O`: the GI50 in [1] was 11.5 µM (inactive); in [2], 18.2 µM (inactive); in test [3] it was 12.9 µM (inactive); in test [4] it was 12.3 µM (inactive); in test [19], 12.8 µM (inactive); in test [5], 18.7 µM (inactive). Also, the GI50 in test [6] was 12.7 µM (inactive); in [7] it was 15.4 µM (inactive); in [8] it was 16.8 µM (inactive); in [9], 11.2 µM (inactive); in [10], 13.4 µM (inactive); in [11], 14.4 µM (inactive). The GI50 in test [15] is 13.6 µM (inactive); in test [16], 11.2 µM (inactive); in test [17], 10 µM (inactive); in [18], 14.9 µM (inactive).

In the case of `COC(=O)C1CC(C(=O)OC)c2nc3cc(C)ccc3nc21` (stereo not given), the GI50 in test [2] was > 100 µM (inactive); in [3], > 100 µM (inactive); in [4], > 100 µM (inactive); in test [19], > 100 µM (inactive); in test [5], 62.7 µM (inactive); in test [6], > 100 µM (inactive). Moreover, the GI50 in test [7], in test [8], in test [9], in [10], in test [12] and in test [13] was > 100 µM (inactive) throughout. The GI50 in test [14], in test [16], in test [17] and in test [18] was > 100 µM (inactive) in each case.

For the compound `CC(C)(C)OC(=O)NCCNC(=O)OCc1ccccc1`, the GI50 in [1], in test [2], in [4], in [19], in test [5] and in [6] was > 100 µM (inactive) throughout. Moreover, the GI50 in test [7] is > 100 µM (inactive); in [8], > 100 µM (inactive); in test [11] it was > 100 µM (inactive); in test [12] it was > 100 µM (inactive); in test [13], 85.9 µM (inactive); in [14], > 100 µM (inactive). Also, the GI50 in test [16], in [17] and in test [18] was > 100 µM (inactive) each time.
